Data set [1] relates to hepatic cirrhosis induced by N-nitrosodiethylamine, clear cell foci. In words: Effect on hepatic cirrhosis (2): formation of clear cell foci. The settings on record: N-nitrosodiethylamine 100 mg/kg i.p., days 0, 7, 14, 21, 28.
The subject of data set [2] is hydroxyproline, fibrosis of the liver. Kind of data set: Effect on hepatic cirrhosis (2): hydroxyproline in liver as index of fibrosis. Format: in vivo, Sprague-Dawley rats. On the procedure:
(§1) Groups Sprague-Dawley male rats (7 weeks old; Nippon SLC) were purchased and kept for five days before being used in the test. Each group consisted of 10 rats, and four groups were used in the test.
(§2) An N-nitrosodiethylamine solution (5.32 ml; which corresponds to 5 g due to the specific gravity of 0.94) was measured into a measuring cylinder by use of a glass pipette, and physiological saline was added to make the total volume 100 ml. Subsequently, the solution was sonicated for 2 minutes to prepare a uniform N-nitrosodiethylamine solution (50 mg/ml). The solution was prepared just before use. N-nitrosodiethylamine was intraperitoneally administered to each rat at a dose of 100 mg/2 ml/kg once in the morning on days 0, 7, 14, 21, and 28 (day 0: the first day of administration of N-nitrosodiethylamine).
An ethanolamine hydrochloric acid salt was measured and dissolved in a certain amount of distilled water for injection use. […]
The frozen liver tissue (1 g) was weighed and homogenized in a Teflon homogenizer together with pure water (3 ml). […] As an index of fibrosis, the amount of hydroxyproline was used, and the hydroxyproline content per g of liver tissue was calculated for comparison.
(3) The amount of hydroxyproline, serving as an index of fibrosis of the liver, was determined by an amino acid analysis.

In data set [3] the test system is hepatic cirrhosis induced by N-nitrosodiethylamine, nodules on liver surface. In words: Effect on hepatic cirrhosis (2): nodule formation on the liver surface. Format: in vivo, Sprague-Dawley rats. On the procedure:
as §1, §2
An ethanolamine hydrochloric acid salt was measured and dissolved in a certain amount of distilled water for injection use. The solution was suitably diluted and administered to each rat by oral route by use of an oral probe for rats.
The liver was visually observed, and then a portion thereof was fixed with 10% neutral formalin buffer. Portions of fixed samples were frozen and stored at -80° C. in a tightly-sealed container.
The formation of nodules was evaluated by five rankings.

The subject of data set [4] is hepatocytes, tubular epithelial cells, dermal keratinocytes and melanocytes, type II epithelial cells of pulmonary alveolus, epithelial cells of gastric mucosa. The settings on record: cited from earlier work.
The subject of a further data set is cancer cells. The settings on record: cited from earlier work.
A further data set deals with mice. Kind of data set: Acute toxicity test. Format: in vivo, mice (ICR). The settings on record: i.p. The protocol:
The pH was adjusted to 7.0 by use of 5 N NaOH. Solutions having lower concentrations were prepared by dilution with physiological saline. Each solution (10 μl) was intraperitoneally injected to mice (ICR, female, 6-weeks old, 29 g), and the survival ratio was obtained.

The next data set concerns liver necrosis. In words: Histopathological profile of liver in mice with carbon tetrachloride liver disorder. It counts as in vivo, ddY mice. The settings on record: ethanolamine administration. The protocol:
(§3) Carbon tetrachloride (5 ml, Wako Pure Chemicals) was put in a glass vial, and Panasate 800 (45 ml, Nippon Yushi Chemicals Co, Ltd.) was added to prepare a 10% (v/v) solution.
(§4) Subsequently, the total amount was made to 50 ml. An aliquot of 2 ml was diluted in 38 ml of physiological saline.
(§5) One group consisted of 10 mice. For 24 hours prior to the administration of tetrachloride, each mouse was fasted by being fed water only. 10% carbon tetrachloride/Panasate solution was intraperitoneally administered to each mice at a dose of 1 ml/kg.

The next data set has as its system rat hepatocyte. In words: 3H-TdR uptake by rat hepatocytes in primary culture (hepatocyte growth promoting activity). The settings on record: in the presence of either the high molecular weight factor extract or EGF.
The next data set has as its system serum transaminase GOT. In words: Serum GOT in mice with liver disorder induced by carbon tetrachloride. Format: in vivo, ddY mice. The protocol:
as §3, §4, §5
(§6) Blood was collected from the abdominal aorta by use of 1-ml disposable syringes (Terumo). The blood, dispensed into 1.5 ml Eppendorf tubes, was subjected to centrifugal separation at 5,000 rpm for 10 minutes to thereby obtain serum. The activity of transaminase (GOT, GPT) in the serum thus obtained was measured. The measurement was performed by use of a Cobas Mira System (Baxter).

The next data set deals with serum transaminase GPT. In words: Serum GPT in mice with liver disorder induced by carbon tetrachloride. Format: in vivo, ddY mice. On the procedure:
as §3, §4, §5, §6

[5] abbreviates: N-nitrosodiethylamine 100 mg/kg i.p., days 0, 7, 14, 21, 28.

Counter-ions that a name gives are not always drawn.

Method for rat hepatocyte: In separation and identification of the low molecular weight factor showing hepatocyte proliferation promoting activity derived from epithelial mucosa of the bovine small intestine, the rat hepatocyte system in primary culture was used. To this culture system, a fraction of a crude extract of bovine small intestine epithelial mucosa in the course of purification was added in the presence of high molecular weight factor extract (1%) and insulin (10 μg/ml) or in the presence of EGF (20 ng/ml) and insulin (10 μg/ml), to thereby establish an assay system for measuring the uptake of ^3 H-TdR into DNA of rat hepatocyte nuclei.
Fractions each amounting 15 ml was added to the above-mentioned assay system and the uptake of ^3 H-TdR was measured.

Consider `CCN(CC)N=O` [N-nitrosodiethylamine, reference compound], for which the “formation of clear cell foci” value in data set [1] was “considerable formation of clear cell foci”. In addition, the hydroxyproline level result in [2] (setting [5]) is “significantly elevated”. Moreover, the “nodules in the surface of the liver” value in data set [3] (setting [5]) is listed as “presented clear nodules in the surface of the liver”.
With HGF: hepatocyte growth factor (HGF), in data set [4], the mitogenic activity entry is recorded as “potent mitogen”. Also, in data set [4] (motion of cells), the motogen function result is given as “function as a motogen to stimulate motion of cells”. Moreover, the “proliferation of cancer cells” value in the data set on cancer cells was “action to suppress proliferation of cancer cells”.
Consider `NCCO` [EA-HCl, monoethanolamine-HCl], for which the “Survival, 1 day after admin.” value is recorded as 4/4 in the data set on mice (0.5 g/kg (calculated as EA)) and 3/3 in the data set with mice (1.25 g/kg (calculated as EA)). The “Survival, 6 days after admin.” value was 4/4 with mice (0.5 g/kg (calculated as EA)) and 3/3 in the data set on mice (1.25 g/kg (calculated as EA)). The “Survival, administration (day)” value is 4/4 in the data set on mice (0.5 g/kg (calculated as EA)), 3/3 in the data set with mice (1.25 g/kg (calculated as EA)), 0/4 with mice (2.5 g/kg (calculated as EA)) and 0/4 in the data set on mice (5.0 g/kg (calculated as EA)). The compound further registered a time to death with mice (5.0 and 2.5 g/kg) not above 30 min. Further, the “survival at six days” value in the data set with mice (doses equal to or less than 1.25 g/kg) was “alive when six days had passed”.
Consider `NCCO` [ethanolamine, monoethanolamine], for which the “amount of hydroxyproline, dose dependence” value in [2] (oral, 15 and 50 mg/kg) is recorded as “the higher the dose of ethanolamine, the lower the amount of hydroxyproline”. The “area of necrosis in histopathological profile of the liver” value in the data set on liver necrosis was “a tendency that the area of necrosis was reduced”. The “formation of nodules, difference vs N-nitrosodiethylamine group” value in data set [3] (15 mg/kg and 50 mg/kg, Dunnett's test) is recorded as “statistically significant”. In addition, the “prevention of hepatic cirrhosis induced by N-nitrosodiethylamine” value in [3] (oral administration) was “can be prevented by oral administration of ethanolamine”. The “formation of nodules, dose dependence” value in data set [3] (oral, 15 and 50 mg/kg, visual observation) is listed as “the higher the dose of ethanolamine, the less significant the formation of nodules”. Further, the “3H-TdR uptake, growth-stimulating effect” value with rat hepatocyte is on record as “synergistic growth-stimulating effects”. For the same compound, the GOT level result is listed as “significantly decreased” in the data set with serum transaminase GOT (intraperitoneal, 2.8 mg/kg) and “significantly decreased” in the data set on serum transaminase GOT (peroral, 16 mg/kg). Also, the GPT level entry is “significantly decreased” with serum transaminase GPT (intraperitoneal, 2.8 mg/kg) and “significantly decreased” with serum transaminase GPT (peroral, 16 mg/kg).

(Values after patent US5972914A, “Remedies for liver diseases” (Meiji Milk Products Co., Ltd., priority 1998, dated 1999).)
